Values of other authors, collected in patent publication US7083802B2, “Treatment of ocular disease” (Advanced Ocular Systems Limited, priority 2003, dated 2006).

Key:
[1] = reported in co-pending application Ser. No. 10/247,220

Structure (SMILES): C=CC[C@@H]1/C=C(\C)C[C@H](C)C[C@H](OC)[C@H]2O[C@@](O)(C(=O)C(=O)N3CCCC[C@H]3C(=O)O[C@H](/C(C)=C/[C@@H]3CC[C@@H](O)[C@H](OC)C3)[C@H](C)[C@@H](O)CC1=O)[C@H](C)C[C@@H]2OC [tacrolimus]
- Dose for administration without substantial toxicity [1]: 250 µg
- Clinical effect in atopic dermatitis (topical, doses 0.03%–0.3%, after 2–3 weeks treatment): significant clinical improvement
- Adverse effects of topical administration versus control (treatment of dermatoses, concentrations up to 0.3%): no significant difference in effects between treated and control groups
